“Also recorded” adds a separate entry of the source.
Assays:
human CREB RNA = assay: human CREB bDNA assay; assay type: cell-based
Excerpt: CREB 1 and CREB 3 oligos have identical sequence homology with both mouse and human. CREB 17 has a single base mismatch.

[1] = test system: CREB mRNA in Neuro2a cells; assay: bDNA assay of CREB mRNA after transfection of CREB LNA antisense oligos (FIG. 3); assay type: cell-based, Mus musculus; conditions: higher concentration (0.5 :M)
Experimental: Detection of CREB mRNA with the bDNA Assay. Mus musculus Neuro2a cells were obtained from American Type Culture Collection (ATCC, Cat. No. CCL-131; Manassas, Va.). Cells were plated in Modified Eagle's Minimum Essential Media (Minimum essential medium (Eagle) with 2 mM L-glutamine and Earle's BSS adjusted to contain 1.5 g/L sodium bicarbonate, 0.1 mM non-essential amino acids, and 1.0 mM sodium pyruvate, 90%; fetal bovine serum, […]) in a 96-microwell format at 2×10^4 cells per well. Cells were maintained at 37 C. and 5% CO2 overnight before transfecting with CREB Locked Nucleic Acid (LNA) oligonucleotides.
Cells were transfected using Lipofectamine 2000 (hivitrogen, Carlsbad, Calif.) with modifications to the manufacturer's protocol. […]
The direct quantitation of CREB messenger RNA (mRNA) following transfection of antisense oligos, was detected using the QuantiGene Expression Kit according to the manufacturer's protocol (Bayer Corporation; Tarrytown, N.Y.). […] The luminescence of each well was measured in a Wallac Victor2 V (Perkin Elmer) plate luminometer at 45 C. […]

normal mice = assay: memory formation in normal mice after weak or strong training (% Freezing, FIG. 1); assay type: in vivo
Excerpt: FIG. 1 is a bar graph showing the results of drug-induced (partial) enhancement of memory in normal mice by rolipram, a prototypical phosphodiesterase (PDE) inhibitor. Five-day retention after weak training (2×) is lower than strong training (5×). Only memory after weak training is enhanced by bilateral hippocampal injections (1 :l) of rolipram immediately after training. Rolipram reduced the number of training sessions required to produce memory. % Freezing=% Observation time mice spent frozen/motionless.
These Active Hits were evaluated in vivo rodent models of memory formation. To do so efficiently, a new behavioral training protocol was validated, which logically was affected by upstream modulation of the CREB pathway. During initial stages of acquisition, repeated training trials lead to increased cAMP levels. At some point, cAMP levels pass a threshold, and activated PKA (catalytic subunit) is translocated to the nucleus, where it phosphorylates CREB directly or it yields a permissive state for the phosphorylation of CREB by a cofactor. In this context, phosphodiesterase (PDE) inhibitors act to increase cAMP levels beyond the threshold with fewer training trials, thereby producing more long-lasting memory with weaker training.

“TggCACTgTTACAgTggT (LNA modifications, as printed in the source, key not given here) [CREB17, CREB LNA antisense oligonucleotide; single base mismatch to human]” was tested, and the “knocking down human CREB RNA levels” value (human CREB RNA) was “factional in knocking down human CREB RNA levels”.

In the case of “TggTCATTTAgTTACCggTg (as printed in the source, key not given here) [CREB3]”, the “knocking down human CREB RNA levels” value (human CREB RNA) is reported as “factional in knocking down human CREB RNA levels” and the “effect on endogenous CREB RNA levels” value [1] is reported as “reduces endogenous CREB RNA levels”.

With COc1ccc(C2CNC(=O)C2)cc1OC1CCCC1 (stereo not drawn) [rolipram] the “number of training sessions required to produce memory” value (normal mice) was “reduced” and the “memory (five-day retention, % Freezing) after weak training” value (normal mice; weak training (2×), not strong training (5×), bilateral hippocampal injections (1 :l) immediately after training) was “effect was established as predicted; also recorded: enhanced”.

In the case of “CCTCCgCCgCgTCACTCA (LNA modifications, as printed in the source, key not given here) [CREB1, CREB Locked Nucleic Acid (LNA) antisense oligonucleotide]”, the “knocking down human CREB RNA levels” value (human CREB RNA) is reported as “factional in knocking down human CREB RNA levels”.
